Measurements taken from US9464064B2, “HCV helicase inhibitors and methods of use thereof” (University of Kansas, priority 2011, dated 2016).

Experiments:
[1] = target: T1, HCV NS3 helicase NS3h_1b(con1) (Hepatitis C virus genotype 1b, UniProt Q9WMX2); assay: biochemical; type: biochemical, hepatitis C virus genotype 1b(con1)
T1 construct: truncated C-terminally His-tagged NS3 proteins lacking the N-terminal protease, called NS3h; His-tag (C); made in house
From the text: (§1) All oligonucleotides were purchased from Integrated DNA Technologies (IDT, Coralville, Iowa). The partially duplex DNA substrates used in MBHAs consisted of a helicase substrate forming 25 base pairs and consists of a 45-mer bottom strand 5′-GCTCCCCGTTCATCGATTGGGGAGC(T)20-3′ (SEQ ID NO:1) and the 25-mer HCV top strand 5′-Cy5-GCTCCCCAATCGATGAACGGGGAGC-IBRQ-3′ (SEQ ID NO:2). The 19 base pair RNA substrate used in MBHAs was composed of a 39 nucleotide long bottom strand 5′-AGU GCC UUG ACG AUA CAG C(U)20-3′ (SEQ ID NO:3) and the 24 nucleotide long top strand 5′-Tye^665-AGUGCGCUGUAUCGUCAAGGCACU-IBRQSp-3′ (SEQ ID NO:4). Underlined areas denote hairpin-forming regions. DNA and RNA substrates were annealed and purified as described previously (Belon & Frick (2008) BioTechniques 45:433-40, 442).
The cloning, expression, and purification of His-tagged recombinant HCV NS3 protein have been described previously (Lam, et al. (20030 J. Virol. 77:3950-61; Heck, et al. (2008) Antimicrob. Agents Chemother. 52:1901-11; Frick et al. (2010) Methods Mol. Biol. 587:223-233; Belon, et al. & Frick (2009) J. Mol. Biol. 388:851-864).
(§2) All molecular beacon-based helicase assays (MBHAs) were performed according to known methods (Belon & Frick (2008) supra; Belon & Frick (2009) supra). […] In each flat, black 384-well plate, 56 compounds were tested, in triplicate, along with three negative controls (DMSO only), three positive controls (500 nM dT20), and two wells with no enzyme. Fluorescence was read before ATP (F0) addition and 30 minutes after ATP was added to 1 mM (F30) using a Tecan Infinite M200 fluorescence microplate reader with excitation and emission wavelengths set to 643 and 670 nm, respectively. Percent inhibition was calculated with equation 1, and compound interference in the MBHA was calculated with equation 2.
To monitor helicase reaction kinetics and to calculate IC50 values, MBHAs were performed in 60 μL in white ½ area 96-well plates and measured in a Thermo Varioscan Multimode reader (Thermo Scientific) using the 643 nm excitation wavelength and 667 emission wavelengths. Reactions were again performed by first incubating all components except for ATP for two minutes, then initiated by injecting in 1/10 volume of ATP such that the final concentration of all components was as noted above. Conditions were as described above except that 5% v/v DMSO was present in each assay. Initial reaction velocities were calculated by fitting first-order decay equation to data obtained after ATP addition and calculating an initial velocity form the resulting amplitude and rate constant.
[formula] where, v0 is the velocity observed in DMSO-only controls inhibition, h is the Hillslope coefficient, [I] is the concentration of test compound.

[2] = target: T2, HCV helicase (Hepatitis C virus genotype 1b, UniProt Q9WMX2); assay: MBHA with RNA substrate (HCV helicase-catalyzed RNA unwinding); type: biochemical; details: in words
T2 construct: truncated C-terminally His-tagged NS3 proteins lacking the N-terminal protease, called NS3h; His-tag (C); made in house
From the text: as §1, §2
To monitor helicase reaction kinetics and to calculate IC50 values, MBHAs were performed in 60 μL in white ½ area 96-well plates and measured in a Thermo Varioscan Multimode reader (Thermo Scientific) using the 643 nm excitation wavelength and 667 emission wavelengths. […] Initial reaction velocities were calculated by fitting first-order decay equation to data obtained after ATP addition and calculating an initial velocity form the resulting amplitude and rate constant.

T2 sequence (Q9WMX2 1192-1657): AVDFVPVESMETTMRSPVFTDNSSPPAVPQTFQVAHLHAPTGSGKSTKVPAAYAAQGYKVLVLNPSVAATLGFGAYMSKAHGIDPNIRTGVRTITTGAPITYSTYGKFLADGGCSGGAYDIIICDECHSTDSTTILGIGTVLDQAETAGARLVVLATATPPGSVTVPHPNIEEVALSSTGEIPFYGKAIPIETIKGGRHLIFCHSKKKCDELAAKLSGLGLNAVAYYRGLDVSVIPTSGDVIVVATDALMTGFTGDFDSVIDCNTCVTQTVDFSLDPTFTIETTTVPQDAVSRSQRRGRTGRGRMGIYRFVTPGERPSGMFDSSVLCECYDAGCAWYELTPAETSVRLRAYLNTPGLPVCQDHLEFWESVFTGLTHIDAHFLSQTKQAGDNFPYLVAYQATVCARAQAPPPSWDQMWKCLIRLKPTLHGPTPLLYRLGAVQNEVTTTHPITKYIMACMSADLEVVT
T1 sequence (Q9WMX2 1192-1657): as above

| Compound | IC50 ([1]; MBHA, DNA unwinding, mean ± SD of three titrations, read-out: Helicase IC50) | effect on HCV helicase catalyzed RNA unwinding [2] | effect on HCV helicase catalyzed DNA unwinding ([1]; in words) |
| --- | --- | --- | --- |
| CO[C@@H]1[C@H](O)C[C@@H](O[C@@H]2C[C@H](Oc3cc4cc5c(c(O)c4c(O)c3C)C(=O)[C@@H](O[C@H]3C[C@@H](O[C@H]4C[C@@H](O[C@H]6C[C@](C)(O)[C@@H](OC(C)=O)[C@H](C)O6)[C@H](O)[C@@H](C)O4)[C@H](O)[C@@H](C)O3)[C@H]([C@H](OC)C(=O)[C@@H](O)[C@@H](C)O)C5)O[C@H](C)[C@@H]2OC(C)=O)O[C@@H]1C [Chromomycin A3, reference compound] | 150 ± 30 nM | no effect |  |
| Cc1ccc2c(c1)sc(-c1ccc(N(C)C)cc1)[n+]2C.[Cl-] [thioflavine T, reference compound] |  | no effect | no effect |
